Measured values published in patent publication US20250049946A1, “SULFONATO RESORCINARENE-COMPLEXED FLUOROQUINOLONES AND METHODS OF USE” (University of Cincinnati, priority 2023, published 2025).

How the values were obtained:
P. aeruginosa = test: in vitro antibacterial activity (MIC assay, 96-well, absorbance at 600 nm); type: cell-based, Pseudomonas aeruginosa; details: for inhibition of bacterial cells: at higher concentration, P. aeruginosa
Procedure: (§1) The in vitro antibacterial activity was tested using a Gram-positive bacterial pathogen, S. aureus, and sensitive and resistant strains of a Gram-negative bacterial pathogen, P. aeruginosa using a high-throughput format in a 96-well microtiter plate, as described previously. Briefly, an inoculum of the test organism was grown to mid-log phase in a Luria broth (LB) medium containing 10 g/L tryptone, 5 g/L yeast extract, and 10 g/L sodium chloride. A 50 μL aliquot of the 100-fold diluted bacterial inoculum was placed in each test well. […]. All experiments were performed in triplicate. For each measurement, three samples in each replicate were analyzed and data were recorded as mean±standard deviation (SD). A paired two-tailed t-test was employed for mean comparison, with significance determined at p<0.05. The dcata analysis was conducted using the Excel program.
(§2) The antibacterial effectiveness of complexed FQs was assessed in comparison to uncomplexed FQs against Gram-positive Staphylococcus aureus (S. aureus) and Gram-negative Pseudomonas aeruginosa (P. aeruginosa) through a minimum inhibitory concentration (MIC) assay conducted at various concentrations. […] The percentage growth inhibition of bacterial cells treated with complexed and uncomplexed FQs was determined by comparing with the untreated control (FIGS. 13A-13C). The concentrations tested for P. aeruginosa and S. aureus varied based on the MIC of individual antibiotics. […]

S. aureus = test: as above; type: cell-based, Staphylococcus aureus; details: for inhibition of bacterial cells: at higher concentration, S. aureus
Procedure: as §1, §2

[1] = partition coefficient (Ko/w) n-octanol / phosphate buffer; type: physicochemical; details: octanol / phosphate buffer pH 7.4, 25 °C, 24 h; complexes with 10 times higher host stock

SMILES	killing of P. aeruginosa bacteria (P. aeruginosa; 4 μg/mL, 24 h, FIG. 13A)	inhibition of bacterial cells (P. aeruginosa)	killing of S. aureus (S. aureus; 12 μg/mL, 24 h, FIG. 13A)	inhibition of bacterial cells (S. aureus)	inhibitory effect on P. aeruginosa cells (P. aeruginosa; […] (so in the source), 24 h, FIG. 13B)	inhibition at 128 µg/mL (S. aureus; Staphylococcus aureus, 128 μg/mL, 24 h, FIG. 13B, read-out: inhibitory effect on S. aureus cells)	log P (experimental partition coefficient Ko/w) [1]
O=C(O)c1cn(C2CC2)c2cc(N3CCNCC3)c(F)cc2c1=O [CIPRO, ciprofloxacin]	100.67±0.39%	90%	98.30±0.26%	90%	–	–	–
CCn1cc(C(=O)O)c(=O)c2cc(F)c(N3CCNCC3)cc21 [NOR, norfloxacin]	–	90%	–	90%	100.43±0.17%	97.9 ± 0.38%	–
C[C@H]1COc2c(N3CCN(C)CC3)c(F)cc3c(=O)c(C(=O)O)cn1c23 [LEVO, levofloxacin]	–	90%	–	90%	–	–	−0.41
CC1c2cc(c(O)c(CS(=O)(=O)O)c2O)C(C)c2cc(c(O)c(CS(=O)(=O)O)c2O)C(C)c2cc(c(O)c(CS(=O)(=O)O)c2O)C(C)c2cc1c(O)c(CS(=O)(=O)O)c2O (stereo not drawn) [SRsC1, sulfonato-C-methylresorcin[4]arene]	–	–	–	–	–	–	−0.99
